Assay results as given in US8134015B2, “Compound inhibiting in vivo phosphorous transport and medicine containing the same” (Kyowa Hakko Kirin Co., Ltd., priority 2003, dated 2012).

Molecular target: T1, rat NaPi-2b (Rattus norvegicus, UniProt Q9JJ09)
T1 construct: expressed in transfected cells; host or cells: Xenopus oocytes injected with cRNA
T1 sequence (Q9JJ09 1-695): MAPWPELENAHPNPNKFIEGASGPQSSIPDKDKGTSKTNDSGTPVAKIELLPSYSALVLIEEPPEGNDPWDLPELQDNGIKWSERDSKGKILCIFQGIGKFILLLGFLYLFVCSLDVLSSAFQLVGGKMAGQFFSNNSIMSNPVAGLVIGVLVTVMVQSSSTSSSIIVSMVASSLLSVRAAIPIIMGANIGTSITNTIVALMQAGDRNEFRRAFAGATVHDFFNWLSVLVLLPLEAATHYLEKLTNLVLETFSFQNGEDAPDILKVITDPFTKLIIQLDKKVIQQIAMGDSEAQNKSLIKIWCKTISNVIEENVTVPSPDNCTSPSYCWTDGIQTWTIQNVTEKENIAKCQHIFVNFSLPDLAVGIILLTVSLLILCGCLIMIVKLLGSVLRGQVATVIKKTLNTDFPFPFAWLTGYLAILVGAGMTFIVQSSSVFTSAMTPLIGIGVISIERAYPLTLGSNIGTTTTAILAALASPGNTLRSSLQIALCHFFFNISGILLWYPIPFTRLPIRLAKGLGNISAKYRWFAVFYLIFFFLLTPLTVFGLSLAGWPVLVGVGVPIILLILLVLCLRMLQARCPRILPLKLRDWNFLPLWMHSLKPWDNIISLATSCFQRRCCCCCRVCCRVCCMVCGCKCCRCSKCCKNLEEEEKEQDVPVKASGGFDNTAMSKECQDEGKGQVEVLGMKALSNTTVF
Test: Sodium-dependent phosphate uptake of Xenopus oocytes which expressed NaPi-2b (32P)
Format: cell-based
Conditions: for IC50: Xenopus oocytes expressing rat NaPi-2b, 32P radioactive phosphorus, read-out: IC50 (phosphate uptake inhibitory activity); for inhibition at 300 µM: phosphate uptake, oocytes expressing rat NaPi-2b, determined from inhibition curve
Outline: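 Read-out is 32P phosphate uptake into Xenopus oocytes expressing rat intestinal NaPi-2b (cRNA injection, 2-day culture). Inhibition at 300 μM and 100 μM was derived from a single inhibition curve and given as percent.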

Compound | IC50 [µM] | inhibition at 300 µM [%]
COc1cccc(/C=N/NC(=O)c2cc(Br)ccc2NC(=O)c2ccc(CN3CCN(CCO)CC3)cc2)c1 [Compound 323, N-[4-Bromo-2-(3-methoxy-benzylidene-hydrazinocarbonyl)-phenyl]-4-[4-(2-hydroxy-ethyl)-piperazin-1-ylmethyl]-benzamide] | 4.69 | 
O=C(Nc1ccc(Br)cc1C(=O)N/N=C/c1ccc(F)cc1)c1ccc(CN2CCC(N3CCCCC3)CC2)cc1 [Compound 311, 4-[1,4′]Bipiperidinyl-1′-ylmethyl-N-[4-bromo-2-(4-fluoro-benzylidene-hydrazinocarbonyl)-phenyl]-benzamide] | 7.78 | 
Cc1csc(C(=O)N/N=C/c2cccc(F)c2)c1NC(=O)c1cccc(CN2CCN(CCO)CC2)c1 [Compound 535, N-[2-(3-Fluoro-benzylidene-hydrazinocarbonyl)-4-methyl-thiophen-3-yl]-3-[4-(2-hydroxy-ethyl)-piperazin-1-ylmethyl]-benzamide] |  | 53
O=C(Nc1ccc(Cl)cc1C(=O)N/N=C/c1ccc(Cl)c(C(F)(F)F)c1)c1cccc(CSCc2ccco2)c1 [Compound 700, N-[4-Chloro-2-(4-chloro-3-trifluoromethyl-benzylidene-hydrazinocarbonyl)-phenyl]-3-(furan-2-ylmethylsulfanylmethyl)-benzamide] |  | 40.3
O=C(Nc1ccc(Br)cc1C(=O)N/N=C/c1ccc(F)cc1)c1ccc(CN2CCN(CC(=O)N3CCOCC3)CC2)cc1 [Compound 730, N-[4-Bromo-2-(4-fluoro-benzylidene-hydrazinocarbonyl)-phenyl]-4-[4-(2-morpholin-4-yl-2-oxo-ethyl)-piperazin-1-ylmethyl]-benzamide] | 15.7 | 
COc1ccc(C(=O)Nc2ccccc2C(=O)N/N=C/c2cccc(Cl)c2)cc1OC [Compound 35, N-[2-(3-Chloro-benzylidene-hydrazinocarbonyl)-phenyl]-3,4-dimethoxy-benzamide] | 3.23 | 
COc1ccc(C(=O)Nc2ccccc2C(=O)N/N=C/c2ccc(C)cc2)cc1 [Compound 51, 4-Methoxy-N-[2-(4-methyl-benzylidene-hydrazinocarbonyl)-phenyl]-benzamide] | 4.6 | 
CC(O)CN(Cc1cccc(C(=O)Nc2ncccc2C(=O)N/N=C/c2ccc(Cl)c(C(F)(F)F)c2)c1)CC(C)O (stereo not shown) [Compound 967, 3-{[Bis-(2-hydroxy-propyl)-amino]-methyl}-N-[3-(4-chloro-3-trifluoromethyl-benzylidene-hydrazinocarbonyl)-pyridin-2-yl]-benzamide] | 6.57 | 
COc1ccc(/C=N/NC(=O)c2cc(Br)sc2NC(=O)c2cccc(CN(C)C)c2)cc1 [Compound 930, N-[5-Bromo-3-(4-methoxy-benzylidene-hydrazinocarbonyl)-thiophen-2-yl]-3-dimethylaminomethyl-benzamide] |  | 40.2
CCOCCN(CCOCC)Cc1ccc(C(=O)Nc2ccc(Br)cc2C(=O)N/N=C/c2cccc(OC)c2)cc1 [Compound 740, 4-{[Bis-(2-ethoxy-ethyl)-amino]-methyl}-N-[4-bromo-2-(3-methoxy-benzylidene-hydrazinocarbonyl)-phenyl]-benzamide] |  | 58.5
CN(CCO)Cc1cccc(C(=O)Nc2ccc(Cl)cc2C(=O)N/N=C/c2ccc(O)cc2)c1 [Compound 403, N-[4-Chloro-2-(4-hydroxy-benzylidene-hydrazinocarbonyl)-phenyl]-3-{[(2-hydroxy-ethyl)-methyl-amino]-methyl}-benzamide] | 26.7 | 
Cc1cccc(/C=N/NC(=O)c2cc(Br)ccc2NC(=O)c2cccnc2)c1 [Compound 174, N-[4-Bromo-2-(3-methyl-benzylidene-hydrazinocarbonyl)-phenyl]-nicotinamide] | 12.5 | 
CCN(CC)CCN(C)Cc1cccc(-c2nc3ccc(N4CCCN(C)CC4)cc3c(=O)n2/N=C/c2ccc(OC)cc2)c1 [Compound 933, 2-(3-{[(2-Diethylamino-ethyl)-methyl-amino]-methyl}-phenyl)-3-[(4-methoxy-benzylidene)-amino]-6-(4-methyl-[1,4]diazepan-1-yl)-3H-quinazolin-4-one] |  | 37.6
O=C(Nc1sc2c(c1C(=O)N/N=C/c1ccc(Cl)c(C(F)(F)F)c1)CCCC2)c1cccc(CN2CCC(CO)CC2)c1 [Compound 643, N-[3-(4-Chloro-3-trifluoromethyl-benzylidene-hydrazinocarbonyl)-4,5,6,7-tetrahydro-benzo[b]thiophen-2-yl]-3-(4-hydroxymethyl-piperidin-1-ylmethyl)-benzamide] | 3.68 | 
CCN(CC)CCNCc1ccc(C(=O)Nc2ccc(Br)cc2C(=O)N/N=C/c2cccc(OC)c2)cc1 [Compound 299, N-[4-Bromo-2-(3-methoxy-benzylidene-hydrazinocarbonyl)-phenyl]-4-[(2-diethylamino-ethylamino)-methyl]-benzamide] | 3.91 | 
O=C(Nc1ccc(Cl)cc1C(=O)N/N=C/c1cccc(F)c1)c1cccc(CSCc2ccco2)c1 [Compound 680, N-[4-Chloro-2-(3-fluoro-benzylidene-hydrazinocarbonyl)-phenyl]-3-(furan-2-ylmethylsulfanylmethyl)-benzamide] | 4.04 | 
Cc1ccc(/C=N/NC(=O)c2cc(Cl)ccc2NC(=O)c2cccc(CSCc3ccco3)c2)cc1C [Compound 683, N-[4-Chloro-2-(3,4-dimethyl-benzylidene-hydrazinocarbonyl)-phenyl]-3-(furan-2-ylmethylsulfanylmethyl)-benzamide] | < 3 | 
O=C(Nc1ccc(Br)cc1C(=O)N/N=C/c1ccc(F)cc1)c1ccc(CN2CCN(c3ccccn3)CC2)cc1 [Compound 774, N-[4-Bromo-2-(4-fluoro-benzylidene-hydrazinocarbonyl)-phenyl]-4-(4-pyridin-2-yl-piperazin-1-ylmethyl)-benzamide] |  | 58.9

Continued, values first:

IC50 [µM] | inhibition at 300 µM [%] | Compound
0.41 |  | COc1ccc(NC(=O)c2cccc(CSCC(O)CO)c2)c(C(=O)N/N=C/c2ccc(C)c(C)c2)c1 (stereo not shown) [Compound 1019, 3-(2,3-Dihydroxy-propylsulfanylmethyl)-N-[2-(3,4-dimethyl-benzylidene-hydrazinocarbonyl)-4-methoxy-phenyl]-benzamide]
< 0.3 |  | O=C(Nc1ccc(N2CCCCC2)cc1C(=O)N/N=C/c1ccc(Cl)c(C(F)(F)F)c1)c1cccc(CN2CCN(CCO)CC2)c1 [Compound 868, N-[2-(4-Chloro-3-trifluoromethyl-benzylidene-hydrazinocarbonyl)-4-piperidin-1-yl-phenyl]-3-[4-(2-hydroxy-ethyl)-piperazin-1-ylmethyl]-benzamide]
0.57 |  | CCN(CC)CCN(C)Cc1ccc(C(=O)Nc2ccc(Br)cc2C(=O)N/N=C/c2cccc(C)c2)cc1 [Compound 286, N-[4-Bromo-2-(3-methyl-benzylidene-hydrazinocarbonyl)-phenyl]-4-{[(2-diethylamino-ethyl)-methyl-amino]-methyl}-benzamide]
2.16 |  | Cc1cccc(/C=N/NC(=O)c2cc(Br)ccc2NC(=O)c2ccno2)c1 [Compound 511, Isoxazole-5-carboxylic acid [4-bromo-2-(3-methyl-benzylidene-hydrazinocarbonyl)-phenyl]-amide]
2.07 |  | COc1ccc(C(=O)Nc2ccccc2C(=O)N/N=C/c2ccc(F)cc2)cc1 [Compound 48, N-[2-(4-Fluoro-benzylidene-hydrazinocarbonyl)-phenyl]-4-methoxy-benzamide]
1.65 |  | Cc1ccc(/C=N/NC(=O)c2cc(N3CCCCC3)ccc2NC(=O)c2cccc(CNCCN(CCO)CCO)c2)cc1C [Compound 913, 3-({2-[Bis-(2-hydroxy-ethyl)-amino]-ethylamino}-methyl)-N-[2-(3,4-dimethyl-benzylidene-hydrazinocarbonyl)-4-piperidin-1-yl-phenyl]-benzamide]
1.29 |  | COc1ccc(C(=O)Nc2ccc(Cl)cc2C(=O)N/N=C/c2cccc(F)c2)cc1OC [Compound 65, N-[4-Chloro-2-(3-fluoro-benzylidene-hydrazinocarbonyl)-phenyl]-3,4-dimethoxy-benzamide]
< 3 |  | CCN(CC)CCN(C)Cc1cccc(C(=O)Nc2ccc(I)cc2C(=O)N/N=C/c2cccc(C)c2)c1 [Compound 474, 3-{[(2-Diethylamino-ethyl)-methyl-amino]-methyl}-N-[4-iodo-2-(3-methyl-benzylidene-hydrazinocarbonyl)-phenyl]-benzamide]
< 3 |  | CCN(CCO)Cc1ccc(C(=O)Nc2ccc(Cl)cc2C(=O)N/N=C/c2ccc(Cl)c(C(F)(F)F)c2)cc1 [Compound 437, N-[4-Chloro-2-(4-chloro-3-trifluoromethyl-benzylidene-hydrazinocarbonyl)-phenyl]-4-{[ethyl-(2-hydroxy-ethyl)-amino]-methyl}-benzamide]
< 1 |  | CCN(CC)CCN(C)Cc1cccc(C(=O)Nc2scc(C)c2C(=O)N/N=C/c2ccc(C)c(C)c2)c1 [Compound 563, 3-{[(2-Diethylamino-ethyl)-methyl-amino]-methyl}-N-[3-(3,4-dimethyl-benzylidene-hydrazinocarbonyl)-4-methyl-thiophen-2-yl]-benzamide]
